Tests used:
HCT116 MTAP null cells = assay: HCT116 MTAP null cell line proliferation / cell viability (CellTiter-Glo, 6 days); assay type: cell-based; settings: 144 h; HCT116 MTAP null cells, 6 days treatment, CellTiter-Glo cell viability; read-out: HCT-116 MTAP null IC50
Outline: (§1)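 CellTiter-Glo luminescence read after 6 days of compound exposure in parental and MTAP-null HCT116 cells grown in RPMI 1640/10% FBS. Dilution series: 1:3 steps, 8–9 points, top 1 or 10 μM; or 1:2 steps, 22 points, top 10 or 50 μM. IC50 = curve transit through 50% of control.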

HCT116 WT cells = assay: HCT116 WT (parent) cell line proliferation / cell viability (CellTiter-Glo, 6 days); assay type: cell-based; settings: Homo sapiens, HCT-116, 144 h, 6 days treatment
Outline: as §1

IC50 (HCT116 MTAP null cells) [nM]	IC50 (HCT116 WT cells) [nM]	SMILES
58	2010	Cc1nn(C)c2c1c(N)nc1ccc(C(=O)N(C)[C@@H]3COc4cc(C(F)(F)F)ccc43)cc12 [Example 263, 4-amino-N,1,3-trimethyl-N-((3S)-6-(trifluoromethyl)-2,3-dihydro-1-benzofuran-3-yl)-1H-pyrazolo[4,3-c]quinoline-8-carboxamide]
21	1400	Nc1nc2cc(F)c(C(=O)N(C3CC3)[C@@H]3COc4cc(C(F)(F)F)ccc43)cc2c2c1COC2 (single isomer, unassigned) [Example 554]
89	5590	CN(C(=O)c1ccc2nc(N)c3c(c2c1)COC3)C1COc2nc(C(F)(F)F)ccc21 (single isomer, unassigned) [Example 529]
56	4290	CN(C(=O)c1cc2c3c(c(N)nc2cc1C(F)(F)F)COC3)[C@@H]1COCc2nc(C(F)(F)F)ccc21 [Example 278, 4-amino-N-methyl-7-(trifluoro-methyl)-N-((5S)-2-(trifluoro-methyl)-5,8-dihydro-6H-pyrano[3,4-b]pyridin-5-yl)-1,3-dihydrofuro[3,4-c]quinoline-8-carboxamide]
237	8780	CN(C(=O)c1cc2c3c(c(N)nc2cn1)COC3)[C@@H]1COc2cc(S(C)(=O)=O)ccc21 (single isomer, unassigned) [Example 339]
76	3450	CN(C(=O)c1ccc2nc(N)c3c(c2c1)COC3)[C@@H]1COc2cc(S(C)(=O)=O)ccc21 (single isomer, unassigned) [Example 323]
5230	15200	CCN(C(=O)c1cc2c3c(c(N)nc2cn1)COC3)[C@H]1COc2cc(C(F)(F)F)ccc21 (single isomer, unassigned) [Example 544]
19	925	CN(C(=O)c1cc2c3c(c(N)nc2cc1Cl)COC3)[C@@H]1COc2cc(S(C)(=O)=O)ccc21 (single isomer, unassigned) [Example 564]
38	1040	Cc1nn(C)c2c1c(N)nc1cc(F)c(C(=O)N(C)[C@@H]3COc4cc(S(F)(F)(F)(F)F)ccc43)cc12 (single isomer, unassigned) [Example 391]
179	7610	CN(C(=O)c1ccc2nc(N)c3c(cnn3C)c2c1)[C@@H]1COc2cc(C(F)(F)F)ccc21 (single isomer, unassigned) [Example 575]
297	21000	Cc1ccc2c(n1)CCC2N(C)C(=O)c1ccc2nc(N)c3cnn(C)c3c2c1 (racemic) [Example 682, 4-amino-N,1-dimethyl-N-((5R)-2-methyl-6,7-dihydro-5H-cyclopenta[b]pyridin-5-yl)-1H-pyrazolo[4,3-c]quinoline-8-carboxamide and 4-amino-N,1-dimethyl-N-((5S)-2-methyl-6,7-dihydro-5H-cyclopenta[b]pyridin-5-yl)-1H-pyrazolo[4,3-c]quinoline-8-carboxamide]
3560	50000	CN(C(=O)c1cc2c3c(c(N)nc2cn1)COC3)C1COc2cc(C(F)(F)F)ncc21 (racemic) [Example 454, 4-amino-N-methyl-N-((3R)-6-(trifluoromethyl)-2,3-dihydrofuro[3,2-c]pyridin-3-yl)-1,3-dihydrofuro[3,4-c][1,7]naphthyridine-8-carboxamide and 4-amino-N-methyl-N-((3S)-6-(trifluoromethyl)-2,3-dihydrofuro[3,2-c]pyridin-3-yl)-1,3-dihydrofuro[3,4-c][1,7]naphthyridine-8-carboxamide]
14	523	Cc1nn(C)c2c1c(N)nc1cc(F)c(C(=O)N(C)[C@@H]3COCc4cc(C(F)(F)F)ccc43)cc12 [Example 313, 4-amino-7-fluoro-N,1,3-trimeth-yl-N-((4S)-7-(trifluoromethyl)-3,4-dihydro-1H-2-benzopyran-4-yl)-1H-pyrazolo[4,3-c]quin-oline-8-carboxamide]
44	3520	CN(C(=O)c1ccc2nc(N)c3cnn(C)c3c2c1)[C@@H]1COc2cc(OC3CC3)ccc21 [Example 672, (S)-4-amino-N-(6-cyclopropoxy-2,3-dihydrobenzofuran-3-yl)-N,1-dimethyl-1H-pyrazolo[4,3-c]quinoline-8-carboxamide 2,2,2-trifluoroacetate]
38	2150	CN(C(=O)c1ccc2nc(N)c3cnn(C)c3c2c1)C1COc2ncc(C(F)(F)F)cc21 (racemic) [Example 226, 4-amino-N,1-dimethyl-N-((3R)-5-(trifluoromethyl)-2,3-dihydrofuro[2,3-b]pyridin-3-yl)-1H-pyrazolo[4,3-c]quinoline-8-carboxamide and 4-amino-N,1-dimethyl-N-((3S)-5-(trifluoromethyl)-2,3-dihydro-furo[2,3-b]pyridin-3-yl)-1H-pyrazolo[4,3-c]quinoline-8-carboxamide]
3160	50000	CN(C(=O)c1cc2c3c(c(N)nc2cc1F)COC3)[C@H]1CCc2nc(C(F)(F)F)ccc21 (single isomer, unassigned) [Example 350]

IC50 (HCT116 MTAP null cells) [nM]	IC50 (HCT116 WT cells) [nM]	SMILES
17	706	CN(C(=O)c1ccc2nc(N)c3ccncc3c2c1)[C@@H]1COCc2nc(C(F)(F)F)ccc21 [Example 279, 5-amino-N-methyl-N-((5S)-2-(trifluoromethyl)-5,8-dihydro-6H-pyrano[3,4-b]pyridin-5-yl)benzo[c][2,6]naphthyridine-9-carboxamide]
6	384	CN(C(=O)c1ccc2nc(N)c3cnn(C)c3c2c1)[C@@H]1COc2cc(-c3ccoc3)ccc21 [Example 626, 4-amino-N-((3S)-6-(3-furanyl)-2,3-dihydro-1-benzofuran-3-yl)-N,1-dimethyl-1H-pyrazolo[4,3-c]quinoline-8-carboxamide]
47	2870	CN(C(=O)c1cc2c(cc1Cl)nc(N)c1c2cnn1C)[C@@H]1COc2cc(OC(F)(F)F)ccc21 [Example 487, 4-amino-7-chloro-N,3-dimethyl-N-((3S)-6-(trifluoromethoxy)-2,3-dihydro-1-benzofuran-3-yl)-3H-pyrazolo[3,4-c]quinoline-8-carboxamide]
786	24200	CN(C(=O)c1ccc2nc(N)c3cnn(C)c3c2c1)[C@H]1COc2cc(Br)cnc21 [Example 236, 4-amino-N-((3R)-6-bromo-2,3-dihydrofuro[3,2-b]pyridin-3-yl)-N,1-dimethyl-1H-pyrazolo[4,3-c]quinoline-8-carboxamide]
34	1220	CN(C(=O)c1cc2c3c(c(N)nc2cc1F)COC3)[C@@H]1COc2cc(C(F)(F)F)ccc21 (single isomer, unassigned) [Example 552]
83	6270	CN(C(=O)c1ccc2nc(N)c3cnn(C)c3c2c1)[C@@H]1CCCc2nc(C(F)(F)F)ccc21 (single isomer, unassigned) [Example 411]
21	1020	C[C@H]1OCc2c1c(N)nc1cc(F)c(C(=O)N(C)[C@@H]3COCc4cc(S(C)(=O)=O)ccc43)cc21 (single isomer, unassigned) [Example 592]
3870	50000	CN(C(=O)c1cc2c3c(c(N)nc2cc1F)COC3)[C@H]1COc2cc(S(C)(=O)=O)ccc21 (single isomer, unassigned) [Example 354]
137	9810	CN(C(=O)c1ccc2nc(N)c3cnn(C)c3c2c1)[C@@H]1COc2cc(OC3COC3)ccc21 [Example 677, 4-amino-N,1-dimethyl-N-((3S)-6-(3-oxetanyloxy)-2,3-dihydro-1-benzofuran-3-yl)-1H-pyrazolo[4,3-c]quinoline-8-carboxamide]
47	2400	CN(C(=O)c1ccc2nc(N)c3c(cnn3C)c2c1)[C@@H]1COc2cc(S(F)(F)(F)(F)F)ccc21 [Example 255, 4-amino-N,3-dimethyl-N-((3S)-6-(pentafluoro-lambda~6~- sulfanyl)-2,3-dihydro-1-benzo-furan-3-yl)-3H-pyrazolo[3,4-c]quinoline-8-carboxamide]
6060	23200	CN(C(=O)c1cc2c3c(c(N)nc2cn1)COC3)[C@H]1COc2cc(OC(F)(F)F)ccc21 [Example 207, 4-amino-N-methyl-N-((3R)-6-(trifluoromethoxy)-2,3-dihydro-1-benzofuran-3-yl)-1,3-dihydrofuro[3,4-c][1,7]-naphthyridine-8-carboxamide]
8	524	CN(C(=O)c1ccc2nc(N)c3cnn(C)c3c2c1)[C@@H]1COc2cc(C3=CCCOC3)ccc21 [Example 634, 4-amino-N-((3S)-6-(5,6-dihydro-2H-pyran-3-yl)-2,3-dihydro-1-benzofuran-3-yl)-N,1-dimethyl-1H-pyrazolo[4,3-c]quinoline-8-carboxamide]
13	1950	Cc1ncc(-c2ccc3c(c2)OC[C@H]3N(C)C(=O)c2ccc3nc(N)c4cnn(C)c4c3c2)cn1 [Example 636, 4-amino-N,1-dimethyl-N-((3S)-6-(2-methyl-5-pyrimidinyl)-2,3-dihydro-1-benzofuran-3-yl)-1H-pyrazolo[4,3-c]quinoline-8-carboxamide]
17	816	CCN(C(=O)c1ccc2nc(N)c3c(c2c1)COC3)[C@@H]1COc2cc(C(F)(F)F)ccc21 (single isomer, unassigned) [Example 533]
1690	10500	CN(C(=O)c1ccc2nc(N)c3c(c2c1)COC3)[C@H]1COc2cc(C3CC3)ccc21 (single isomer, unassigned) [Example 611]

— patent publication US20240124442A1, “TRICYCLIC-AMIDO-BICYCLIC PRMT5 INHIBITORS” (AMGEN INC., priority 2021, published 2024)
